Data as given in ChEMBL document CHEMBL1201862, “PubChem BioAssay data set” (2004).
Values joined by “and” are separate entries in the source; they are usually repeats but may differ in a detail not shown here. Identical values can stand only once.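 Dose response: 5 concentrations. Exposure: 48 h. Format: 96-well plates. Endpoint: linear interpolation; highest concentration if not reached. Here, GI50 denotes the concentration required for 50% inhibition of growth.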 Active and inactive are the calls of the source. Cut-off read from the data, not from the text of the source: active = GI50 up to about 1.1 µM and inactive = higher.

Assays:
Test in all cases: inhibition of tumour cell growth, NCI panel, 48 h
[1] = tested on: BT-549
[2] = tested on: DLD-1
[3] = tested on: DMS-114
[4] = tested on: DMS-273
[5] = tested on: HOP-18
[6] = tested on: LXFL 529
[7] = tested on: SNB-78
[8] = tested on: XF498
[9] = tested on: RXF 631

Compound: NCC1OC(n2cnc3c(=O)[nH]c(N)nc32)C(O)C1O (centres undefined)
- GI50 [1]: > 100 µM (inactive)

Compound: NC(=O)C1CCCNC1 (centres undefined)
- GI50 [1]: > 100 µM (inactive)

Compound: N#Cc1c(N)n(C2OC(CO)C(O)C2O)c2ncnc(N)c12 (centres undefined)
- GI50 [1]: 0.152 µM (active)

Compound: N#CC12CNCC1CN=N2 (centres undefined)
- GI50 [1]: > 100 µM (inactive)

Compound: O=C1c2c(c(-c3ccccc3)c(-c3ccccc3)c(-c3ccccc3)c2-c2ccccc2)C(=O)N1c1cccc(Br)c1
- GI50 [2]: > 100 µM (inactive)
- GI50 [3]: > 100 µM (inactive)
- GI50 [4]: > 100 µM (inactive)
- GI50 [5]: > 100 µM (inactive)
- GI50 [6]: > 100 µM (inactive)
- GI50 [7]: > 100 µM (inactive)
- GI50 [8]: > 100 µM (inactive)

Compound: COc1ccc(OC)c(/N=C/c2cc(OC)c(OC)c(OC)c2)c1
- GI50 [1]: > 78.9 µM (inactive)

Compound: O/N=C1\C=Cc2nn(-c3ccccc3)nc2\C1=N/O
- GI50 [1]: 3.4 µM (inactive)

Compound: COC(=O)CCC(C)[C@H]1CCC2C3C(C[C@H](OC(C)=O)[C@@]21C)[C@@]1(C)CCC2(C[C@H]1C[C@H]3OC(C)=O)OOC1(CCCCC1)OO2 (some centres undefined)
- GI50 [1]: 40.6 µM (inactive)

Compound: COc1ccc(C[C@@H]2CN(C(=O)c3ccccc3)[C@H](Cc3ccc(O)cc3)CN2C(=O)c2ccccc2)cc1Br
- GI50 [1]: > 100 µM (inactive)

Compound: COC(=O)CC1C2(C)C3=C(C)C(c4ccoc4)CC3OC2C2OC(=O)C3(C)C=CC(=O)C1(C)C23 (centres undefined)
- GI50 [1]: 0.9 µM (active)

Compound: COc1ccc(C/C=C(\C)CCO)cc1
- GI50 [1]: > 100 µM (inactive)

Compound: NS(=O)(=O)c1ccc(Nc2c3ccccc3nc3c(C(=O)NCCCN(CCO)CCO)cccc23)cc1
- GI50 [1]: 20.4 µM (inactive)

Compound: COC(=O)CNC(=O)/C=C/[C@H](O[Si](C)(C)C(C)(C)C)[C@H](/C=C/C(=O)NCC(=O)OC)O[Si](C)(C)C(C)(C)C
- GI50 [1]: > 25 µM (inactive)

Compound: COc1cc(C(c2cccc3ccccc23)N2C(=O)CCC2C(=O)O)cc(OC)c1OC (centres undefined)
- GI50 [1]: > 100 µM (inactive)

Compound: CC(=O)Nc1ccc(-c2nnc(SCC(=O)Nc3ccc(Cl)cc3)o2)cc1
- GI50 [2]: 10.4 µM (inactive)
- GI50 [3]: 1.85 µM (inactive)
- GI50 [4]: 14.5 µM (inactive)
- GI50 [5]: 15 µM (inactive)
- GI50 [6]: 8.97 µM (inactive)
- GI50 [7]: 46.2 µM (inactive)

Compound: CC(=O)O[C@H]1CC[C@@]2(C)C(=CC[C@@H]3C2CC[C@]2(C)Nc4nc5ccccc5cc4CC32)C1 (some centres undefined)
- GI50 [2]: 3.72 µM (inactive)
- GI50 [3]: 5.4 µM (inactive)
- GI50 [4]: 4.82 µM (inactive)
- GI50 [5]: 3.94 µM (inactive)
- GI50 [6]: 3.38 µM (inactive)
- GI50 [7]: 6.01 µM (inactive)
- GI50 [8]: 5.89 µM (inactive)

Compound: COc1ccc(C2S/C(=C\c3ccc(OC)cc3OC)C(=O)N2NC(=O)Cc2ccccc2)cc1 (centres undefined)
- GI50 [2]: > 100 µM (inactive)
- GI50 [3]: > 100 µM (inactive)
- GI50 [4]: > 100 µM (inactive)
- GI50 [5]: > 100 µM (inactive)
- GI50 [6]: > 100 µM (inactive)

Compound: O=C(C/N=C(\CN(c1ccccc1)c1ccccc1)Oc1c(Cl)cc(Cl)cc1Cl)N1c2ccccc2Sc2ccccc21
- GI50 [1]: 17.3 µM (inactive)

Compound: CC1OC2OC3C(OCC(O)C3O)OC(=O)[C@]34CCC(C)(C)CC3C3=CCC5[C@@]6(C)C[C@H](O)[C@H](OC7OC(CO)C(O)C(O)C7OC7OC(COC(=O)CC(C)(O)CC(=O)OC1C(O)C2O)C(O)C(O)C7O)[C@@](C)(CO)C6CC[C@@]5(C)[C@]3(C)CC4 (some centres undefined)
- GI50 [1]: 1.5 µM (inactive)

Compound: Cc1cc(C)nc(NS(=O)(=O)c2ccc(Nc3nncc(=O)n3N)cc2)n1
- GI50 [1]: 18.4 µM (inactive)

Compound: COc1c2c(c(OC)c3c(=O)cc(C/C(=N/NC(=O)C[n+]4ccccc4)C(=O)Nc4cc(C)ccc4C)oc13)OCO2
- GI50 [2]: > 100 µM (inactive)
- GI50 [3]: > 100 µM (inactive)
- GI50 [4]: > 100 µM (inactive)
- GI50 [6]: > 100 µM (inactive)
- GI50 [7]: > 100 µM (inactive)

Compound: O=C(CC(=O)N1N=C(N(c2ccccc2)c2ccccc2)CC1c1ccccc1)Nc1cccc(Cl)c1 (centres undefined)
- GI50 [1]: > 100 µM (inactive)

Compound: O=c1[nH]c2ccc(C(F)(F)F)cc2nc1C(F)(F)F
- GI50 [1]: 22.2 µM (inactive)

Compound: Cc1nc(-c2ccccc2)c(C)n2c1nc1ccccc12
- GI50 [1]: 23 µM (inactive)

Compound: CSc1c(CC(=O)O)n(Cc2ccccc2)c2ccccc12
- GI50 [1]: > 100 µM (inactive)

Compound: C=C(CO)[C@H]1Oc2ccc(C(C)=O)cc2[C@@H]1O
- GI50 [1]: 33.2 µM (inactive)

Compound: COc1cc(OC)c2c(c1)C(=O)C(CC(C)O)=CC2=O (centres undefined)
- GI50 [2]: 13.7 µM (inactive)
- GI50 [3]: 3.08 µM (inactive)
- GI50 [4]: 16.6 µM (inactive)
- GI50 [5]: 16.7 µM (inactive)
- GI50 [6]: 13.2 µM (inactive)
- GI50 [7]: 15.3 µM (inactive)
- GI50 [8]: 14 µM (inactive)

Compound: COc1ccc2c(c1)N=C1CSC(c3cccc(Br)c3)N1C2 (centres undefined)
- GI50 [1]: 12.4 µM (inactive)

Compound: C=C1C(=O)O[C@H]2C1C[C@@H](OC(C)=O)/C(C)=C/CC[C@@]1(C)O[C@H]21 (some centres undefined)
- GI50 [1]: 5.92 µM (inactive)

Compound: CC(=O)OC(/C=C/c1ccccc1)P1(=O)N(CC(C)(C)C)[C@@H]2CCCC[C@H]2N1CC(C)(C)C (some centres undefined)
- GI50 [1]: 11.5 µM (inactive) and 14.4 µM (inactive)

Compound: COc1cc2c3c(c1OC)C(=O)C(=O)C1=C3N(CCC1)CC2
- GI50 [1]: 21.8 µM (inactive)

Compound: Cc1nc2c(n1CCN(C)C)C(=O)c1ccccc1C2=O
- GI50 [2]: 13.5 µM (inactive)
- GI50 [4]: 13.5 µM (inactive)
- GI50 [6]: 17.9 µM (inactive)
- GI50 [7]: 24.7 µM (inactive)
- GI50 [8]: 18.3 µM (inactive)

Compound: COc1ccc(CCCCl)c(C2=NCCc3ccccc32)c1
- GI50 [1]: 33.3 µM (inactive)

Compound: CCOc1ccccc1NC(=O)C(=O)c1c(O)c2ccc(O)cc2oc1=O
- GI50 [2]: > 100 µM (inactive)
- GI50 [4]: > 100 µM (inactive)
- GI50 [5]: > 100 µM (inactive)
- GI50 [6]: > 100 µM (inactive)
- GI50 [9]: > 100 µM (inactive)
- GI50 [7]: > 100 µM (inactive)
